Experiments:
HBL-1 = assay: Combination study, ATPLite 72 h, dose matrix (Synergy Score, CI50); conditions: combination with Compound 1, 72 h
Protocol: (§1) Cells are thawed from a liquid nitrogen preserved state. Once cells have been expanded and divide at their expected doubling times, screening begins. Cells are seeded in growth media in either black 1536-well or 384-well tissue culture treated plates. Cells are then equilibrated in assay plates via centrifugation and placed in incubators attached to the Dosing Modules at 37° C. for 24 hours before treatment. […] These Tzero (To) plates are read using ultra-sensitive luminescence on Envision plate readers (Perkin Elmer). Treated assay plates are incubated with compound for 72 hours. After 72 hours, plates are developed for endpoint analysis using ATPLite. All data points are collected via automated processes, quality controlled and analyzed using Zalicus software.
(§2) where T is treated cell count and V is untreated (vehicle) cell count (at 72 hours). I ranges from 0% (when T=V) to 100% (when T=0). […] The measure of effect in the experiment can be the inhibition of cellular response relative to the untreated level (vehicle alone). […] The inhibition ranges from 0% at the untreated level to 100% when T=0. Inhibition levels are negative for agents that actually increase levels. Other effect measures, such as an activity ratio r=T/V may be more appropriate for some assays. When activity ratios (e.g, fold increase over stimulated control) are being used, the effect can be measured using an induction 1=ln(T/V). With this definition, all effect expressions are the same as for inhibition.
(§3) Growth Inhibition (GI) is used as a measure of cell viability. […] A GI reading of 100% represents complete growth inhibition—T72 compound-treated and T0 vehicle signals are matched. […] A GI reading of 200% represents complete death of all cells in the culture well. Compounds reaching an activity plateau of GI 200% are considered cytotoxic. GI is calculated by applying the following test and equation:
(§4) Combination analysis data were collected in a 6×6 dose matrix. Synergy is calculated by comparing a combination's response to those of its single compound, against the drug-with-itself dose-additive reference model. Deviations from dose additivity may be assessed visually on an isobologram or numerically with a Combination Index (CI). […] Additive effect is CI=1.0. […] Antagonistic effect is CI>1.0.
(§5) To measure combination effects in excess of Loewe additivity, a scalar measure to characterize the strength of synergistic interaction termed the Synergy Score is devised. The Synergy Score is calculated as:
(§6) The fractional inhibition for each component agent and combination point in the matrix is calculated relative to the median of all vehicle-treated control wells. The Synergy Score equation integrates the experimentally-observed activity volume at each point in the matrix in excess of a model surface numerically derived from the activity of the component agents using the Loewe model for additivity. Additional terms in the Synergy Score equation (above) are used to normalize for various dilution factors used for individual agents and to allow for comparison of synergy scores across an entire experiment. The inclusion of positive inhibition gating or an Idata multiplier removes noise near the zero effect level, and biases results for synergistic interactions at that occur at high activity levels.
(§7) Loewe Volume (Loewe Vol) is used to assess the overall magnitude of the combination interaction in excess of the Loewe additivity model. Loewe Volume is particularly useful when distinguishing synergistic increases in a phenotypic activity (positive Loewe Volume) versus synergistic antagonisms (negative Loewe Volume). […] This model defines additivity as a non-synergistic combination interaction where the combination dose matrix surface should be indistinguishable from either drug crossed with itself. The calculation for Loewe additivity is:

OCI-Ly3 = assay: as above; conditions: combination with Compound 1; OCI-Ly3; 72 h
Protocol: as §1, §2, §3, §4, §5, §6, §7

WSU-NHL = assay: as above; conditions: combination with Compound 1, 72 h
Protocol: as §1, §2, §3, §4, §5, §6
(§8) Loewe Volume (Loewe Vol) is used to assess the overall magnitude of the combination interaction in excess of the Loewe additivity model. Loewe Volume is particularly useful when distinguishing synergistic increases in a phenotypic activity (positive Loewe Volume) versus synergistic antagonisms (negative Loewe Volume). […] This model defines additivity as a non-synergistic combination interaction where the combination dose matrix surface should be indistinguishable from either drug crossed with itself.

[1] = as above; conditions: combination with Compound 1; OPM-2
OMP-2 = assay: as above; conditions: combination with Compound 1; OPM-2
GRANTA-519 = assay: as above; conditions: combination with Compound 1
SU-DHL-10-epst = assay: as above; conditions: combination with Compound 1, 72 h
Farage = assay: as above; conditions: combination with Compound 1; Farage; 72 h
KARPAS-422 = assay: as above; conditions: combination with Compound 1, 72 h
U-2932 = assay: as above; conditions: combination with Compound 1, 72 h
HH = assay: as above; format: cell-based; conditions: combination with Compound 1
Protocol: The method is described as follows.
Additive effect is CI=1.0. […] Antagonistic effect is CI>1.0.
The Synergy Score is calculated as: […]

DOHH-2 = assay: as above; conditions: combination with Compound 1, 72 h
SU-DHL-4-epst = assay: as above; conditions: combination with Compound 1, 72 h
RL = assay: as above; conditions: combination with Compound 1, 72 h
Protocol: as §1, §2, §3, §4, §5, §6, §8

RPMI-8226 = assay: as above; conditions: combination with Compound 1
Protocol: as §1, §2, §3, §4, §5, §6, §8

TMD8 = assay: as above; conditions: combination with Compound 1; TMD8; 72 h
Protocol: as §1, §2, §3, §4
The isobologram was drawn by identifying the locus of concentrations that correspond to crossing the indicated inhibition level. This is done by finding the crossing point for each single agent concentration in a dose matrix across the concentrations of the other single agent. Practically, each vertical concentration CY is held fixed while a bisection algorithm is used to identify the horizontal concentration CX in combination with that vertical dose that gives the chosen effect level in the response surface Z(CX,CY). These concentrations are then connected by linear interpolation to generate the isobologram display. For synergistic interactions, the isobologram contour fall below the additivity threshold and approaches the origin, and an antagonistic interaction would lie above the additivity threshold. The error bars represent the uncertainty arising from the individual data points used to generate the isobologram. The uncertainty for each crossing point is estimated from the response errors using bisection to find the concentrations where Z−αZ(CX,CY) and Z+σZ(CX,CY) cross Icut, where αZ is the standard deviation of the residual error on the effect scale.
as §5
The fractional inhibition for each component agent and combination point in the matrix is calculated relative to the median of all vehicle-treated control wells.

Jeko-1 = assay: as above; conditions: combination with Compound 1
Protocol: as §1, §2, §3, §4, §5, §6, §8

NCI-H929 = assay: as above; conditions: combination with Compound 1
Protocol: as §1, §2, §3, §4, §5, §6, §8

OCI-Ly7 = assay: as above; conditions: combination with Compound 1, 72 h
Mino = assay: as above; conditions: combination with Compound 1
Protocol: as §1, §2, §3, §4, §5, §6, §8

KARPAS-299 = assay: as above; conditions: combination with Compound 1

CS(=O)(=O)N1CCN(Cc2cc3nc(-c4cccc5[nH]ncc45)nc(N4CCOCC4)c3s2)CC1 [GDC-0941, 2-(1H-indazol-4-yl)-6-((4-(methylsulfonyl)piperazin-1-yl)methyl)-4-morpholinothieno[3,2-d]pyrimidine]
CI50 growth inhibition (HBL-1): U (U=0.7 to <1)
CI50 inhibition (HBL-1): W (W=≥1)
Synergy Score growth inhibition (HBL-1): A2 (A2=1 to <3)
Synergy Score inhibition (HBL-1): A1 (A1=0.0001 to <1)
CI50 growth inhibition (OCI-Ly3): U (U=0.7 to <1)
CI50 inhibition (OCI-Ly3): W (W=≥1)
Synergy Score growth inhibition (OCI-Ly3): A1 (A1=0.0001 to <1)
Synergy Score inhibition (OCI-Ly3): A1 (A1=0.0001 to <1)
CI50 growth inhibition (WSU-NHL): U (U=0.7 to <1)
CI50 inhibition (WSU-NHL): T (T=0.5 to <0.7)
Synergy Score growth inhibition (WSU-NHL): A3 (A3=>3)
Synergy Score inhibition (WSU-NHL): A2 (A2=1 to <3)
CI50 growth inhibition [1]: U (U=0.7 to <1)
CI50 inhibition (OMP-2): W (W=≥1)
Synergy Score growth inhibition (OMP-2): A3 (A3=>3)
Synergy Score inhibition (OMP-2): A1 (A1=0.0001 to <1)
CI50 growth inhibition (GRANTA-519): S (S=0.01 to <0.5)
CI50 inhibition (GRANTA-519): U (U=0.7 to <1)
Synergy Score growth inhibition (GRANTA-519): A2 (A2=1 to <3)
Synergy Score inhibition (GRANTA-519): A1 (A1=0.0001 to <1)
CI50 growth inhibition (SU-DHL-10-epst): S (S=0.01 to <0.5)
CI50 inhibition (SU-DHL-10-epst): T (T=0.5 to <0.7)
Synergy Score growth inhibition (SU-DHL-10-epst): A3 (A3=>3)
Synergy Score inhibition (SU-DHL-10-epst): A2 (A2=1 to <3)
CI50 growth inhibition (Farage): T (T=0.5 to <0.7)
CI50 inhibition (Farage): S (S=0.01 to <0.5)
Synergy Score growth inhibition (Farage): A3 (A3=>3)
Synergy Score inhibition (Farage): A2 (A2=1 to <3)
CI50 growth inhibition (KARPAS-422): T (T=0.5 to <0.7)
CI50 inhibition (KARPAS-422): U (U=0.7 to <1)
Synergy Score growth inhibition (KARPAS-422): A1 (A1=0.0001 to <1)
Synergy Score inhibition (KARPAS-422): A1 (A1=0.0001 to <1)
CI50 growth inhibition (U-2932): T (T=0.5 to <0.7)
CI50 inhibition (U-2932): W (W=≥1)
Synergy Score growth inhibition (U-2932): A1 (A1=0.0001 to <1)
Synergy Score inhibition (U-2932): A1 (A1=0.0001 to <1)
CI50 growth inhibition (HH): W (W=≥1)
CI50 inhibition (HH): W (W=≥1)
Synergy Score growth inhibition (HH): A1 (A1=0.0001 to <1)
Synergy Score inhibition (HH): A1 (A1=0.0001 to <1)
CI50 growth inhibition (DOHH-2): T (T=0.5 to <0.7)
CI50 inhibition (DOHH-2): T (T=0.5 to <0.7)
Synergy Score growth inhibition (DOHH-2): A3 (A3=>3)
Synergy Score inhibition (DOHH-2): A2 (A2=1 to <3)
CI50 growth inhibition (SU-DHL-4-epst): T (T=0.5 to <0.7)
CI50 inhibition (SU-DHL-4-epst): T (T=0.5 to <0.7)
Synergy Score growth inhibition (SU-DHL-4-epst): A3 (A3=>3)
Synergy Score inhibition (SU-DHL-4-epst): A2 (A2=1 to <3)
CI50 growth inhibition (RL): U (U=0.7 to <1)
CI50 inhibition (RL): U (U=0.7 to <1)
Synergy Score growth inhibition (RL): A2 (A2=1 to <3)
Synergy Score inhibition (RL): A2 (A2=1 to <3)
CI50 growth inhibition (RPMI-8226): U (U=0.7 to <1)
CI50 inhibition (RPMI-8226): W (W=≥1)
Synergy Score growth inhibition (RPMI-8226): A2 (A2=1 to <3)
Synergy Score inhibition (RPMI-8226): A1 (A1=0.0001 to <1)
CI50 growth inhibition (TMD8): U (U=0.7 to <1)
CI50 inhibition (TMD8): W (W=≥1)
Synergy Score growth inhibition (TMD8): A3 (A3=>3)
Synergy Score inhibition (TMD8): A2 (A2=1 to <3)
CI50 growth inhibition (Jeko-1): S (S=0.01 to <0.5)
CI50 inhibition (Jeko-1): S (S=0.01 to <0.5)
Synergy Score growth inhibition (Jeko-1): A1 (A1=0.0001 to <1)
Synergy Score inhibition (Jeko-1): A1 (A1=0.0001 to <1)
CI50 growth inhibition (NCI-H929): T (T=0.5 to <0.7)
CI50 inhibition (NCI-H929): T (T=0.5 to <0.7)
Synergy Score growth inhibition (NCI-H929): A3 (A3=>3)
Synergy Score inhibition (NCI-H929): A2 (A2=1 to <3)
CI50 growth inhibition (OCI-Ly7): U (U=0.7 to <1)
CI50 inhibition (OCI-Ly7): W (W=≥1)
Synergy Score growth inhibition (OCI-Ly7): A1 (A1=0.0001 to <1)
Synergy Score inhibition (OCI-Ly7): A1 (A1=0.0001 to <1)
CI50 growth inhibition (Mino): S (S=0.01 to <0.5)
CI50 inhibition (Mino): T (T=0.5 to <0.7)
Synergy Score growth inhibition (Mino): A2 (A2=1 to <3)
Synergy Score inhibition (Mino): A2 (A2=1 to <3)
CI50 growth inhibition (KARPAS-299): W (W=≥1)
Synergy Score growth inhibition (KARPAS-299): A1 (A1=0.0001 to <1)
Synergy Score inhibition (KARPAS-299): A1 (A1=0.0001 to <1)

NC1(c2ccc(-c3nc4ccn5c(=O)[nH]nc5c4cc3-c3ccccc3)cc2)CCC1 [MK-2206, 8-[4-(1-aminocyclobutyl)phenyl]-9-phenyl-2H-[1,2,4]triazolo[3,4-f][1,6]naphthyridin-3-one]
CI50 growth inhibition (HBL-1): T (T=0.5 to <0.7)
CI50 inhibition (HBL-1): W (W=≥1)
Synergy Score growth inhibition (HBL-1): A2 (A2=1 to <3)
Synergy Score inhibition (HBL-1): A1 (A1=0.0001 to <1)
CI50 growth inhibition (OCI-Ly3): S (S=0.01 to <0.5)
CI50 inhibition (OCI-Ly3): W (W=≥1)
Synergy Score growth inhibition (OCI-Ly3): A2 (A2=1 to <3)
Synergy Score inhibition (OCI-Ly3): A1 (A1=0.0001 to <1)
CI50 growth inhibition (WSU-NHL): S (S=0.01 to <0.5)
CI50 inhibition (WSU-NHL): S (S=0.01 to <0.5)
Synergy Score growth inhibition (WSU-NHL): A3 (A3=>3)
Synergy Score inhibition (WSU-NHL): A3 (A3=>3)
CI50 growth inhibition [1]: S (S=0.01 to <0.5)
CI50 inhibition (OMP-2): U (U=0.7 to <1)
Synergy Score growth inhibition (OMP-2): A3 (A3=>3)
Synergy Score inhibition (OMP-2): A2 (A2=1 to <3)
CI50 growth inhibition (GRANTA-519): S (S=0.01 to <0.5)
Synergy Score growth inhibition (GRANTA-519): A1 (A1=0.0001 to <1)
Synergy Score inhibition (GRANTA-519): A1 (A1=0.0001 to <1)
CI50 growth inhibition (SU-DHL-10-epst): S (S=0.01 to <0.5)
CI50 inhibition (SU-DHL-10-epst): S (S=0.01 to <0.5)
Synergy Score growth inhibition (SU-DHL-10-epst): A3 (A3=>3)
Synergy Score inhibition (SU-DHL-10-epst): A3 (A3=>3)
CI50 growth inhibition (Farage): S (S=0.01 to <0.5)
CI50 inhibition (Farage): S (S=0.01 to <0.5)
Synergy Score growth inhibition (Farage): A3 (A3=>3)
Synergy Score inhibition (Farage): A3 (A3=>3)
CI50 growth inhibition (KARPAS-422): T (T=0.5 to <0.7)
CI50 inhibition (KARPAS-422): S (S=0.01 to <0.5)
Synergy Score growth inhibition (KARPAS-422): A2 (A2=1 to <3)
Synergy Score inhibition (KARPAS-422): A2 (A2=1 to <3)
CI50 growth inhibition (U-2932): U (U=0.7 to <1)
CI50 inhibition (U-2932): U (U=0.7 to <1)
Synergy Score growth inhibition (U-2932): A1 (A1=0.0001 to <1)
Synergy Score inhibition (U-2932): A1 (A1=0.0001 to <1)
CI50 growth inhibition (HH): S (S=0.01 to <0.5)
CI50 inhibition (HH): S (S=0.01 to <0.5)
Synergy Score growth inhibition (HH): A3 (A3=>3)
Synergy Score inhibition (HH): A2 (A2=1 to <3)
CI50 growth inhibition (DOHH-2): S (S=0.01 to <0.5)
CI50 inhibition (DOHH-2): S (S=0.01 to <0.5)
Synergy Score growth inhibition (DOHH-2): A3 (A3=>3)
Synergy Score inhibition (DOHH-2): A3 (A3=>3)
CI50 growth inhibition (SU-DHL-4-epst): S (S=0.01 to <0.5)
CI50 inhibition (SU-DHL-4-epst): S (S=0.01 to <0.5)
Synergy Score growth inhibition (SU-DHL-4-epst): A3 (A3=>3)
Synergy Score inhibition (SU-DHL-4-epst): A3 (A3=>3)
CI50 growth inhibition (RL): S (S=0.01 to <0.5)
CI50 inhibition (RL): S (S=0.01 to <0.5)
Synergy Score growth inhibition (RL): A3 (A3=>3)
Synergy Score inhibition (RL): A3 (A3=>3)
CI50 growth inhibition (RPMI-8226): U (U=0.7 to <1)
CI50 inhibition (RPMI-8226): U (U=0.7 to <1)
Synergy Score growth inhibition (RPMI-8226): A2 (A2=1 to <3)
Synergy Score inhibition (RPMI-8226): A1 (A1=0.0001 to <1)
CI50 growth inhibition (TMD8): S (S=0.01 to <0.5)
CI50 inhibition (TMD8): S (S=0.01 to <0.5)
Synergy Score growth inhibition (TMD8): A3 (A3=>3)
Synergy Score inhibition (TMD8): A3 (A3=>3)
CI50 growth inhibition (Jeko-1): S (S=0.01 to <0.5)
CI50 inhibition (Jeko-1): S (S=0.01 to <0.5)
Synergy Score growth inhibition (Jeko-1): A2 (A2=1 to <3)
Synergy Score inhibition (Jeko-1): A2 (A2=1 to <3)
CI50 growth inhibition (NCI-H929): T (T=0.5 to <0.7)
CI50 inhibition (NCI-H929): U (U=0.7 to <1)
Synergy Score growth inhibition (NCI-H929): A3 (A3=>3)
Synergy Score inhibition (NCI-H929): A2 (A2=1 to <3)
CI50 growth inhibition (OCI-Ly7): U (U=0.7 to <1)
CI50 inhibition (OCI-Ly7): W (W=≥1)
Synergy Score growth inhibition (OCI-Ly7): A1 (A1=0.0001 to <1)
Synergy Score inhibition (OCI-Ly7): A1 (A1=0.0001 to <1)
CI50 growth inhibition (Mino): W (W=≥1)
CI50 inhibition (Mino): U (U=0.7 to <1)
Synergy Score growth inhibition (Mino): A1 (A1=0.0001 to <1)
Synergy Score inhibition (Mino): A1 (A1=0.0001 to <1)
Synergy Score growth inhibition (KARPAS-299): A1 (A1=0.0001 to <1)
Synergy Score inhibition (KARPAS-299): A1 (A1=0.0001 to <1)
